Measurements published in US10179790B2 (THOMAS HELLEDAYS STIFTELSE FOR MEDICINSK FORSKNING, priority 2014, dated 2019).

Key:
MTH1 = MTH1 (Homo sapiens, UniProt P36639); experiment: MTH1 enzymatic assay and IC50 value determination (malachite green, 96- and 384-well format); assay type: biochemical; details: hydrolysis of dGTP (100 μM), MTH1 6 nM, pyrophosphatase-coupled malachite green, 15 minutes at 22° C.
In short: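 MTH1 (6 nM) hydrolysed dGTP (100 μM) for 15 min at 22 °C in Tris-acetate buffer with Mg2+, DTT, Tween 20 and excess pyrophosphatase, 1% DMSO. Pi detected with malachite green at 630 nm. IC50 from nonlinear 4-parameter fit of 11–12-point dilution series.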

cancer cell = experiment: Cell viability assay (resazurin); assay type: cell-based; details: 72 h; 3 days with compound, resazurin fluorescence; cell line not named
Experimental: The utility of the compounds of the present invention can be illustrated, for example, by their activity in vitro in the cancer cell clonogenic and/or viability assay described below. The link between activity in tumor cell clonogenic assay and anti-tumor activity in the clinical setting has been well established in the art (e.g. see ref Silverstini et al Stem Cells 1993, 11(6), 258-35).
Cells are seeded into 96 well plates (1000-3000 cells/well) in DMEM GlutaMAX™ or other suitable media dependent on cell line and incubated overnight in 5% CO2, 37° C. Thereafter cells are treated with compound or vehicle and left in incubator for 3 days until staining with resazurin. Cells are incubated in resazurin (diluted in suitable media) at 37° C. for 2 hours before measuring the fluorescence (Ex544/Em590).
The compounds to be tested are nano-dispensed in 11 concentrations, directly in 384-well cell plates, with a final DMSO concentration <1%. Cells are seeded in cell plates, pre-dispensed with compounds, 50 μl/well (600-1200 cells/well). After 3 days culture in 5% CO2, 37° C., resazurin diluted in PBS is added, 10 μl/well, and cells are incubated 3 hours before measuring fluorescence (Ex544/Em590).

SMILES	IC50 (MTH1) [nM]	IC50 (cancer cell) [nM]
Cc1nc2ccc(NCCNc3cc(-c4cccc(Cl)c4Cl)nc(N)n3)cc2s1 [Example 39, 6-(2,3-dichlorophenyl)-4-N-{2-[(2-methyl-1,3-benzothiazol-6-yl)amino]ethyl}pyrimidine-2,4-diamine]	< 200	< 500
Cc1cccc(-c2cc(NCCNc3cccc(S(C)(=O)=O)c3)nc(N)n2)c1C [Example 40, 6-(2,3-dimethylphenyl)-4-N-{2-[(3-methanesulfonylphenyl)amino]ethyl}pyrimidine-2,4-diamine]	< 200	< 500
Cc1cccc(-c2cc(NCCNc3ccc(S(N)(=O)=O)cc3F)nc(N)n2)c1C [Example 42, 4-[(2-{[2-amino-6-(2,3-dimethylphenyl)pyrimidin-4-yl]amino}ethyl)amino]-3-fluorobenzene-1-sulfonamide]	< 200	< 500
Cc1c(Cl)cccc1-c1cc(NCCc2ccc(C(N)=O)cc2)nc(N)n1 [Example 43, 4-(2-{[2-amino-6-(3-chloro-2-methylphenyl)pyrimidin-4-yl]amino}ethyl)benzamide]	< 200	< 500
Cc1cccc(-c2cc(NCCc3ccc(C(N)=O)cc3)nc(N)n2)c1C [Example 44, 4-(2-{[2-amino-6-(2,3-dimethylphenyl)pyrimidin-4-yl]amino}ethyl)benzamide]	< 200	< 500
CC(=O)Nc1cccc(CCNc2cc(-c3cccc(Cl)c3C)nc(N)n2)c1 [Example 46, N-[3-(2-{[2-amino-6-(3-chloro-2-methylphenyl)pyrimidin-4-yl]amino}ethyl)phenyl]acetamide]	< 200	< 500
CCOC(=O)Nc1cccc(CCNc2cc(-c3cccc(Cl)c3C)nc(N)n2)c1 [Example 47, ethyl N-[3-(2-{[2-amino-6-(3-chloro-2-methylphenyl)pyrimidin-4-yl]amino}ethyl)phenyl]carbamate]	< 200	< 500
Cc1c(Cl)cccc1-c1cc(NCCc2ccc3c(c2)NC(=O)CO3)nc(N)n1 [Example 48, 6-(2-{[2-amino-6-(3-chloro-2-methylphenyl)pyrimidin-4-yl]amino}ethyl)-3,4-dihydro-2H-1,4-benzoxazin-3-one]	< 200	< 500
COC(=O)c1cnc(NCCNc2cc(-c3cccc(C)c3C)nc(N)n2)cn1 [Example 49, methyl 5-[(2-{[2-amino-6-(2,3-dimethylphenyl)pyrimidin-4-yl]amino}ethyl)amino]pyrazine-2-carboxylate]	< 200	< 500
Cc1c(Cl)cccc1-c1cc(NCCc2cccc(S(C)(=O)=O)c2)nc(N)n1 [Example 52, 6-(3-chloro-2-methylphenyl)-4-N-[2-(3-methanesulfonylphenyl)ethyl]pyrimidine-2,4-diamine]	< 200	< 500
Cc1c(Cl)cccc1-c1cc(NCCc2cccc(S(N)(=O)=O)c2)nc(N)n1 [Example 53, 3-(2-{[2-amino-6-(3-chloro-2-methylphenyl)pyrimidin-4-yl]amino}ethyl)benzene-1-sulfonamide]	< 200	< 500
Nc1nc(NCCc2cccc(S(N)(=O)=O)c2)cc(-c2cccc(Cl)c2Cl)n1 [Example 54, 3-(2-{[2-amino-6-(2,3-dichlorophenyl)pyrimidin-4-yl]amino}ethyl)benzene-1-sulfonamide]	< 200	< 500
Cc1c(Cl)cccc1-c1cc(NCCOc2ccc(C(N)=O)cn2)nc(N)n1 [Example 55, 6-(2-{[2-amino-6-(3-chloro-2-methylphenyl)pyrimidin-4-yl]amino}ethoxy)pyridine-3-carboxamide]	< 200	< 500
Cc1c(Cl)cccc1-c1cc(NCCNc2ccc3c(c2)NC(=O)C(C)(C)O3)nc(N)n1 [Example 56, 6-[(2-{[2-amino-6-(3-chloro-2-methylphenyl)pyrimidin-4-yl]amino}ethyl)amino]-2,2-dimethyl-3,4-dihydro-2H-1,4-benzoxazin-3-one]	< 200	< 500
Cc1c(Cl)cccc1-c1cc(NCCOc2nccc(C(N)=O)n2)nc(N)n1 [Example 57, 2-(2-{[2-amino-6-(3-chloro-2-methylphenyl)pyrimidin-4-yl]amino}ethoxy)pyrimidine-4-carboxamide]	< 200	< 500

Now from value to molecule:

IC50 (MTH1) [nM]	IC50 (cancer cell) [nM]	SMILES
< 200	< 500	Cc1cccc(-c2cc(NCCNc3nccc(C(N)=O)n3)nc(N)n2)c1C [Example 16, 2-[(2-{[2-amino-6-(2,3-dimethylphenyl)pyrimidin-4-yl]amino}ethyl)amino]pyrimidine-4-carboxamide]
< 200	< 500	CC(=O)Nc1ccc(CCNc2cc(-c3cccc(C)c3C)nc(N)n2)cc1 [Example 19, N-[4-(2-{[2-amino-6-(2,3-dimethylphenyl)pyrimidin-4-yl]amino}ethyl)phenyl]acetamide]
< 200	< 500	Cc1cccc(-c2cc(NCCc3ccc(NS(C)(=O)=O)cc3)nc(N)n2)c1C [Example 20, N-[4-(2-{[2-amino-6-(2,3-dimethylphenyl)pyrimidin-4-yl]amino}ethyl)phenyl]methanesulfonamide]
< 200	< 500	CNS(=O)(=O)c1ccc(NCCNc2cc(-c3cccc(C)c3C)nc(N)n2)cc1 [Example 21, 4-[(2-{[2-amino-6-(2,3-dimethylphenyl)pyrimidin-4-yl]amino}ethyl)amino]-N-methylbenzene-1-sulfonamide]
< 200	< 500	CC(=O)Nc1ccc(NCCNc2cc(-c3cccc(C)c3C)nc(N)n2)cc1C [Example 22, N-{4-[(2-{[2-amino-6-(2,3-dimethylphenyl)pyrimidin-4-yl]amino}ethyl)amino]-2-methylphenyl}acetamide]
< 200	< 500	Cc1cccc(-c2cc(NCCNc3ccc4c(c3)NC(=O)CO4)nc(N)n2)c1C [Example 23, 6-[(2-{[2-amino-6-(2,3-dimethylphenyl)pyrimidin-4-yl]amino}ethyl)amino]-3,4-dihydro-2H-1,4-benzoxazin-3-one]
< 200	< 500	Cc1cccc(-c2cc(NCCNc3ccccc3C(N)=O)nc(N)n2)c1C [Example 24, 2-[(2-{[2-amino-6-(2,3-dimethylphenyl)pyrimidin-4-yl]amino}ethyl)amino]benzamide]
< 200	< 500	Cc1cccc(-c2cc(NCCOc3ccc(C(N)=O)cn3)nc(N)n2)c1C [Example 26, 6-(2-{[2-amino-6-(2,3-dimethylphenyl)pyrimidin-4-yl]amino}ethoxy)pyridine-3-carboxamide]
< 200	< 500	CCOC(=O)c1ccc(NCCNc2cc(-c3cccc(C)c3C)nc(N)n2)nc1 [Example 28, ethyl 6-[(2-{[2-amino-6-(2,3-dimethylphenyl)pyrimidin-4-yl]amino}ethyl)amino]pyridine-3-carboxylate]
< 200	< 500	Cc1cccc(-c2cc(NCCNc3ccc(S(N)(=O)=O)c(C(F)(F)F)c3)nc(N)n2)c1C [Example 29, 4-[(2-{[2-amino-6-(2,3-dimethylphenyl)pyrimidin-4-yl]amino}ethyl)amino]-2-(trifluoromethyl)benzene-1-sulfonamide]
< 200	< 500	Cc1cccc(-c2cc(NCCNc3ccc(C(N)=O)cc3)nc(N)n2)c1C [Example 30, 4-[(2-{[2-amino-6-(2,3-dimethylphenyl)pyrimidin-4-yl]amino}ethyl)amino]benzamide]
< 200	< 500	CCOC(=O)Nc1ccc(CCNc2cc(-c3cccc(C)c3C)nc(N)n2)cc1 [Example 31, ethyl N-[4-(2-{[2-amino-6-(2,3-dimethylphenyl)pyrimidin-4-yl]amino}ethyl)phenyl]carbamate]
< 200	< 500	COc1ccc(NCCNc2cc(-c3cccc(C)c3C)nc(N)n2)cc1S(N)(=O)=O [Example 32, 5-[(2-{[2-amino-6-(2,3-dimethylphenyl)pyrimidin-4-yl]amino}ethyl)amino]-2-methoxybenzene-1-sulfonamide]
< 200	< 500	Cc1c(Cl)cccc1-c1cc(NCCNc2ccc3c(c2)NC(=O)CO3)nc(N)n1 [Example 35, 6-[(2-{[2-amino-6-(3-chloro-2-methylphenyl)pyrimidin-4-yl]amino}ethyl)amino]-3,4-dihydro-2H-1,4-benzoxazin-3-one]
< 200	< 500	Cc1nc2ccc(NCCNc3cc(-c4cccc(C)c4C)nc(N)n3)cc2s1 [Example 36, 6-(2,3-dimethylphenyl)-4-N-{2-[(2-methyl-1,3-benzothiazol-6-yl)amino]ethyl}pyrimidine-2,4-diamine]
< 200	< 500	Nc1nc(NCCNc2ccc3c(c2)NC(=O)CO3)cc(-c2cccc(Cl)c2Cl)n1 [Example 38, 6-[(2-{[2-amino-6-(2,3-dichlorophenyl)pyrimidin-4-yl]amino}ethyl)amino]-3,4-dihydro-2H-1,4-benzoxazin-3-one]
